# Measurements published in patent publication US12036230B2, “PTEN inhibitors for treatment and prevention of bone marrow loss” (NISIBIS, LLC-S, priority 2020, dated 2024).
# Where two headings read alike, the source gives them in different places. Numbered stars: 1 amine (or outer) side, 2 acyl side, 3 side chain; on linkers, the order of the positions; unused ones are H or OH. Bridge positions count the residues as written; N and C are the ends. Square brackets hold non-standard residues; d marks the D form. Peptide text beside a SMILES is read from it. Orn = NCCC[C@H](N)C(=O)O; X1 = O=C(CCC[*:2])[*:1]; Mpa = O=C(O)CCS
# Biological target: T1, Human recombinant PTEN (Homo sapiens, UniProt P60484)
# T1 construct: host or cells: Escherichia coli
# T1 sequence (P60484 whole entry): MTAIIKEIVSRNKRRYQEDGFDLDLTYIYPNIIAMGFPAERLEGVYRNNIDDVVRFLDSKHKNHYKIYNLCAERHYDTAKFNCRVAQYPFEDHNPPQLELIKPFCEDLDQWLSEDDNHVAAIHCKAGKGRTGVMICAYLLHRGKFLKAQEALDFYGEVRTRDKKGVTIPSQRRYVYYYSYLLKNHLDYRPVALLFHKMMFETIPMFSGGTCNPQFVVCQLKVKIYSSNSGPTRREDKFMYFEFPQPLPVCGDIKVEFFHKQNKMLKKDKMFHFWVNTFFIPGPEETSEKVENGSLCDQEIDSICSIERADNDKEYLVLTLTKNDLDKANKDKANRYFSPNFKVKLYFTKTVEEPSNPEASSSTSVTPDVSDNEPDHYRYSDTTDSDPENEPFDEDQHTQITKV
# Test: PTEN inhibitor screen: conversion of DiFMUP to DiFMU by recombinant PTEN, spectrofluorometric
# Type: biochemical
# Procedure: Candidate PTEN inhibitor compounds were identified and screened for PTEN inhibition in vitro. Human recombinant PTEN purified from Escherichia coli was assayed for conversion of synthetic phosphotyrosine analog 6,8-difluoro-4-methylumbelliferyl phosphate (DiFMUP) to 6,8-difluoro-7-hydroxy-4-methylcoumarin (DiFMU) in the presence of the various candidate PTEN inhibitors. The reaction was carried out at 37° C. for 1 hour in a reaction mixture containing 100 μM of DiFMUP, 50 mM Tris-HCl (pH 8.5), 0.01% bovine serum albumin, 1 mM dithiothreitol, and 2 mM ethylenediaminetetraacetic acid. PTEN activity was measured by spectrofluorometric quantitation of increasing DiFMU over time.
# [1] = 100 μM DiFMUP, 37° C., 1 hour, pH 8.5, read-out: IC50
# [2] = candidate PTEN inhibitor at 10 μM, 100 μM DiFMUP, 37° C., 1 hour, pH 8.5, read-out: % Inhibition
# [3] = candidate PTEN inhibitor at 10 μM, 100 μM DiFMUP, 37° C., 1 hour, pH 8.5
compound,measurement,setting,value
CCCCCCCC/C=C\CCCCCCCC(=O)O[C@H](COC(=O)CCCCCCCCCCCCCCC)COP(=O)(O)OCC(O)CO (mixture of isomers) [1-palmitoyl-2-oleoyl-sn-glycero-3-(phospho-rac-(1-glycerol))],IC50,[1],1.79 µM
same,inhibition at 10 µM,[2],85%
CCCCCCCCCCCCCC(=O)OCC(COP(=O)(O)OCC(O)CO)OC(=O)CCCCCCCCCCCCC (racemic) [DL-dimyristoylphosphatidylglycerol],IC50,[1],3.99 µM
same,% Inhibition,[3],71%
CC(C)c1nc(CN(C)C(=O)N[C@@H](CCN2CCOCC2)C(=O)N[C@H](CC[C@H](Cc2ccccc2)NC(=O)OCc2cncs2)Cc2ccccc2)cs1 [Cobicistat],IC50,[1],> 10 µM
same,inhibition at 10 µM,[2],24%
CO[C@H]1C[C@@H]2CC[C@@H](C)[C@@](O)(O2)C(=O)C(=O)N2CCCC[C@H]2C(=O)O[C@H]([C@H](C)C[C@@H]2CC[C@@H](OCCO)[C@H](OC)C2)CC(=O)[C@H](C)/C=C(\C)[C@@H](O)[C@@H](OC)C(=O)[C@H](C)C[C@H](C)/C=C/C=C/C=C/1C [Everolimus],IC50,[1],> 10 µM
same,inhibition at 10 µM,[2],33%
CO[C@H]1O[C@H](COS(=O)(=O)O)[C@@H](O[C@@H]2O[C@@H](C(=O)O)[C@@H](O[C@H]3O[C@H](COS(=O)(=O)O)[C@@H](O[C@@H]4O[C@H](C(=O)O)[C@@H](O[C@H]5O[C@H](COS(=O)(=O)O)[C@@H](O)[C@H](O)[C@H]5NS(=O)(=O)O)[C@H](O)[C@H]4O)[C@H](OS(=O)(=O)O)[C@H]3NS(=O)(=O)O)[C@H](O)[C@H]2OS(=O)(=O)O)[C@H](O)[C@H]1NS(=O)(=O)O [Fondaparinux],IC50,[1],2.77 µM
same,inhibition at 10 µM,[2],80%
C[C@@H]1CC(=O)NN=C1c1ccc(NN=C(C#N)C#N)cc1 [Levosimendan],IC50,[1],> 10 µM
same,inhibition at 10 µM,[2],24%
O=C(O)CN(CC(=O)O)Cc1cc2c(cc1O)Oc1cc(O)c(CN(CC(=O)O)CC(=O)O)cc1C21OC(=O)c2ccccc21 [Oftasceine],IC50,[1],> 10 µM
same,inhibition at 10 µM,[2],37%
CC(C)c1c(C(=O)Nc2ccccc2)c(-c2ccccc2)c(-c2ccc(F)cc2)n1CC[C@@H](O)C[C@@H](O)CC(=O)O [atorvastatin],IC50,[1],> 10 µM
same,inhibition at 10 µM,[2],4%
CCOc1ccc(C[C@H]2NC(=O)CCSSC[C@@H](C(=O)N3CCC[C@H]3C(=O)N[C@@H](CCCN)C(=O)NCC(N)=O)NC(=O)[C@H](CC(N)=O)NC(=O)[C@H]([C@@H](C)O)NC(=O)[C@H]([C@@H](C)CC)NC2=O)cc1 [atosiban] ([Mpa][dY](Et)ITNCP[Orn]G-NH2; disulfide 1-6),IC50,,> 10 µM
same,inhibition at 10 µM,[2],12%
COc1ccc(CC2c3cc(OC)c(OC)cc3CC[N+]2(C)CCC(=O)OCCCCCOC(=O)CC[N+]2(C)CCc3cc(OC)c(OC)cc3C2Cc2ccc(OC)c(OC)c2)cc1OC (stereo not shown) [atracurium besylate],IC50,[1],> 10 µM
same,inhibition at 10 µM,[2],16%
CC(C)(C)CC(C)(C)c1cc(Cc2cc(C(C)(C)CC(C)(C)C)cc(-n3nc4ccccc4n3)c2O)c(O)c(-n2nc3ccccc3n2)c1 [bisoctrizole],IC50,[1],> 10 µM
same,inhibition at 10 µM,[2],5%
CC[C@H](C)[C@@H]1NC(=O)[C@H](Cc2ccc(OC)cc2)NC(=O)CCCSC[C@@H](C(=O)N2CCC[C@H]2C(=O)N[C@@H](CC(C)C)C(=O)NCC(N)=O)NC(=O)[C@H](CC(N)=O)NC(=O)[C@H](CCC(N)=O)NC1=O [carbetocin] (Y(Me)IQNCPLG-NH2; linker N-5 via X1),IC50,[1],> 10 µM
same,inhibition at 10 µM,[2],1%
C=C1CC[C@H]2[C@@H](/C=C(\C)C(=O)[C@@]3(OC(C)=O)C[C@H](C)[C@H](OC(=O)c4ccccc4)[C@@H]3[C@H]1OC(C)=O)C2(C)C [diacetyl benzoyl lathyrol],IC50,[1],> 10 µM
same,% Inhibition,[3],25%
C#C[C@]1(O)CC[C@H]2[C@@H]3CCC4=CC(=O)CC[C@@H]4[C@H]3C(=C)C[C@@]21CC [etonogestrel],IC50,[1],> 10 µM
same,inhibition at 10 µM,[2],2%
CCc1c(Cl)c(O)c(Cl)c(O)c1C(=O)O[C@H]1[C@H](O)[C@H](OC)[C@H](OC/C2=C\C=C\C[C@H](O)/C(C)=C/[C@H](CC)[C@@H](O[C@@H]3OC(C)(C)[C@@H](OC(=O)C(C)C)[C@H](O)[C@@H]3O)/C(C)=C/C(C)=C/C[C@@H]([C@@H](C)O)OC2=O)O[C@@H]1C [fidaxomicin],IC50,[1],> 10 µM
same,inhibition at 10 µM,[2],11%
Cc1cc2nc3c(=O)[nH]c(=O)nc-3n(C[C@H](O)[C@H](O)[C@H](O)COP(=O)(O)OP(=O)(O)OC[C@H]3O[C@@H](n4cnc5c(N)ncnc54)[C@H](O)[C@@H]3O)c2cc1C [flavin adenine dinucleotide],IC50,[1],> 10 µM
same,inhibition at 10 µM,[2],13%
CC1(C)C(/C=C/C=C/C=C/C=C2\N(CCCCS(=O)(=O)O)c3ccc4ccccc4c3C2(C)C)=[N+](CCCCS(=O)(=O)[O-])c2ccc3ccccc3c21 [indocyanine green acid form],IC50,[1],2.96 µM
same,inhibition at 10 µM,[2],74%
Clc1ccc(C(c2ccccc2Cl)C(Cl)Cl)cc1 (stereo not shown) [mitotane],IC50,[1],> 10 µM
same,inhibition at 10 µM,[2],13%
C[C@@H]1C/C=C/C=C/C=C/C=C/[C@H](O[C@@H]2O[C@H](C)[C@@H](O)[C@H](N)[C@@H]2O)C[C@@H]2O[C@](O)(C[C@@H](O)C[C@H]3O[C@@H]3/C=C/C(=O)O1)C[C@H](O)[C@H]2C(=O)O [natamycin],IC50,[1],> 10 µM
same,inhibition at 10 µM,[2],3%
Cc1ccccc1-c1cc(N2CCN(C)CC2)ncc1N(C)C(=O)C(C)(C)c1cc(C(F)(F)F)cc(C(F)(F)F)c1 [netupitant],IC50,[1],> 10 µM
same,inhibition at 10 µM,[2],12%
O=C1CCCC(=O)C1C(=O)c1ccc(C(F)(F)F)cc1[N+](=O)[O-] [nitisinone],IC50,[1],> 10 µM
same,inhibition at 10 µM,[2],1%
CC(=O)O[C@H]1C[C@@H]2CC[C@@H]3[C@H](CC[C@@]4(C)[C@H]3C[C@H]([N+]3(C)CCCCC3)[C@@H]4OC(C)=O)[C@@]2(C)C[C@@H]1[N+]1(C)CCCCC1 [pancuronium],IC50,[1],> 10 µM
same,inhibition at 10 µM,[2],11%
CO[C@H]1C[C@@H]2CC[C@@H](C)[C@@](O)(O2)C(=O)C(=O)N2CCCC[C@H]2C(=O)O[C@H]([C@H](C)C[C@@H]2CC[C@@H](O)[C@H](OC)C2)CC(=O)[C@H](C)/C=C(\C)[C@@H](O)[C@@H](OC)C(=O)[C@H](C)C[C@H](C)/C=C/C=C/C=C/1C [sirolimus],IC50,[1],> 10 µM
same,inhibition at 10 µM,[2],3%
C[C@H](N)C(=O)NCC(=O)N[C@H]1CSSC[C@@H](C(=O)O)NC(=O)[C@H](CO)NC(=O)[C@H]([C@@H](C)O)NC(=O)[C@H](Cc2ccccc2)NC(=O)[C@H]([C@@H](C)O)NC(=O)[C@H](CCCCN)NC(=O)[C@H](Cc2c[nH]c3ccccc23)NC(=O)[C@H](Cc2ccccc2)NC(=O)[C@H](Cc2ccccc2)NC(=O)[C@H](CC(N)=O)NC(=O)[C@H](CCCCN)NC1=O [somatostatin],IC50,,> 10 µM
same,inhibition at 10 µM,pH 8.5,5%
O=C(OC[C@H]1O[C@@H](OC(=O)c2cc(O)c(O)c(OC(=O)c3cc(O)c(O)c(O)c3)c2)[C@H](OC(=O)c2cc(O)c(O)c(OC(=O)c3cc(O)c(O)c(O)c3)c2)[C@@H](OC(=O)c2cc(O)c(O)c(OC(=O)c3cc(O)c(O)c(O)c3)c2)[C@@H]1OC(=O)c1cc(O)c(O)c(OC(=O)c2cc(O)c(O)c(O)c2)c1)c1cc(O)c(O)c(OC(=O)c2cc(O)c(O)c(O)c2)c1 [tannic acid],IC50,[1],0.34 µM
same,inhibition at 10 µM,[2],92%
CCC[C@H](NC(=O)[C@@H]1[C@H]2CCC[C@H]2CN1C(=O)[C@@H](NC(=O)[C@@H](NC(=O)c1cnccn1)C1CCCCC1)C(C)(C)C)C(=O)C(=O)NC1CC1 [telaprevir],IC50,,> 10 µM
same,inhibition at 10 µM,pH 8.5,3%
Cc1cc(-c2ccc(/N=N/c3c(S(=O)(=O)O)cc4cc(S(=O)(=O)O)cc(N)c4c3O)c(C)c2)ccc1/N=N/c1c(S(=O)(=O)O)cc2cc(S(=O)(=O)O)cc(N)c2c1O [trypan blue free acid],IC50,[1],4.41 µM
same,inhibition at 10 µM,[2],79%
CCC1=C[C@@H]2CN(C1)Cc1c([nH]c3ccccc13)[C@@](C(=O)OC)(c1cc3c(cc1OC)N(C)[C@H]1[C@@](O)(C(=O)OC)[C@H](OC(C)=O)[C@]4(CC)C=CCN5CC[C@]31[C@@H]54)C2 [vinorelbine],IC50,[1],> 10 µM
same,inhibition at 10 µM,[2],19%
Candicidin,IC50,[1],1.63 µM
same,% Inhibition,[3],91%
Cyanocobalamin,IC50,[1],3.08 µM
same,% Inhibition,[3],85%
Verteporfin,IC50,[1],5.71 µM
same,% Inhibition,[3],98%
hyaluronic acid,IC50,[1],> 10 µM
same,% Inhibition,[3],2%
